The values below are quoted from earlier work in patent publication US20100267624A1 (priority 2007, published 2010).

Molecules are shown by their SMILES. Counter-ions that a name gives are not always drawn.

`CN[C@H](CC(C)C)C(=O)N[C@H]1C(=O)N[C@@H](CC(N)=O)C(=O)N[C@H]2C(=O)N[C@H]3C(=O)N[C@H](C(=O)N[C@H](C(=O)O)c4cc(O)cc(O)c4-c4cc3ccc4O)[C@H](O)c3ccc(c(Cl)c3)Oc3cc2cc(c3O[C@@H]2O[C@H](CO)[C@@H](O)[C@H](O)[C@H]2O[C@H]2C[C@](C)(N)[C@H](O)[C@H](C)O2)Oc2ccc(cc2Cl)[C@H]1O` [Vancomycin Hydrochloride]: under “organic solvents”, the “solubility in organic solvents” value is given as “poorly soluble”. Further, the solubility in water result (water) is given as “very soluble”.
